Reference: patent publication US7862838B1, “Composition and regimen for the treatment of herpes simplex and herpes zoster primarily by eliminating their pathogenetic conditions and taking into account both pathogenesis and etiology” (priority 2009, dated 2011)

Legend:
herpes zoster = test: Treatment of herpes zoster in patients, case report and general statement; type: in vivo; conditions: case 5, herpes zoster around right eye
Source text: The average total period of treatment with the present invention is from about 2-4 days for herpes simplex and from about 3-7 days for herpes zoster. After the acute stage, crusts of the lesion form and fall off gradually, and then a red spot or spots remain for some more days. […] […] For quicker relief, the patient preferred to take the formula of the present invention along with acyclovir.

herpes simplex = test: Treatment and prevention of herpes simplex (lips, mouth) in patients, case reports and general statements; type: in vivo; conditions: large dosage (200-500 mg), applicant's experience
Procedure: The treatment regimen of the present invention comprises: Initially, administering to the patient 2 capsules (or tablets, the same hereinafter) of said formula orally every 2-4 hours. The dosage may be higher in severe cases, and may be adjusted by the prescribing health care provider. When symptoms are alleviated (see description below), usually after 1-2 days, administer 1 capsule of said formula every 4 hours until symptoms disappear. The average total period of treatment with the present invention is from about 2-4 days for herpes simplex and from about 3-7 days for herpes zoster. After the acute stage, crusts of the lesion form and fall off gradually, and then a red spot or spots remain for some more days. The formula of the present invention can be used for therapeutic prevention of herpes simplex: Whenever the patient feels a stinging and burning sensation on the potential site, or feels roughness on the tip of the tongue, they can ingest 1-2 capsules of the formula, and repeat every 2-4 hours if necessary. […] After several such preventive measures, recurrence of herpes simplex will be less and less likely, or latent for a sustained period. […] Patient stated that they had had recurrent maceration in the angles of the mouth since childhood. […]

| Structure (SMILES) | pain relief before treatment with the formula (herpes zoster) | effect on the course of herpes simplex (herpes simplex) |
| --- | --- | --- |
| CC(C)Cc1ccc(C(C)C(=O)O)cc1 (stereo not drawn) [Ibuprofen] | effective only for a short time |  |
| Nc1nc2c(ncn2COCCO)c(=O)[nH]1 [acyclovir] | got some relief |  |
| O=C1O[C@H]([C@@H](O)CO)C(O)=C1O [vitamin C] |  | made herpes simplex worse |
